Data taken from article PMC9855432, “Novel Set of Diarylmethanes to Target Colorectal Cancer: Synthesis, In Vitro and In Silico Studies” (Biomolecules, 2022).

Tests used:
human CRC HT-29 cells [1] = test: MTT cell viability / IC50 on HT-29 cells; assay type: cell-based; details: for IC50: MTT assay, 1 to 50 µM, mean ± SEM of at least three experiments; for viability at 50 µM: HT-29, MTT screening
Experimental: (§1) Cells were grown in DMEM medium for HT-29 cells and RPMI 1640 medium for HCT116 cells, supplemented with 10% FBS, 1% L-glutamine and 100 U/mL penicillin and 100 μg/mL streptomycin. Cultures were maintained in a humidified atmosphere containing 5% CO2 at 37 °C. Stock solutions of each compound were used at 10^−2 M in DMSO and then diluted in culture medium to obtain the appropriate final concentrations. […] L929 cell line is a non-cancer cell line derived from L-strain (L cells) and has been grown in the Peptinov laboratory for years. L929 cells are murine adherent fibroblasts from subcutaneous connective tissue (areolar and adipose tissues). Cells were grown in DMEM medium supplemented with 10% FBS, 1% L-glutamine and 100 U/mL penicillin and 100 µg/mL streptomycin and maintained in a humidified incubator at 37 °C, 5% CO2. When confluence is at 80%, cells are trypsinyzed for 3 min and diluted in fresh medium. Each batch of cells is kept for 15 passages before being discarded and a new batch thawed.
(§2) All compounds were tested on the metabolic activity of the cells using the MTT colorimetric assay. Briefly, cells were seeded in 96-well microplates at 8 × 10^3 cells/well for human CRC HT-29 cells and 5 × 10^3 cells/well for human CRC HCT116 cells and grown for 24 h in appropriate culture medium prior to exposure or not to compounds (6–27) with concentration ranges from 1 to 50 µM. After 48 h of treatment, MTT (5 g/L in Phosphate-buffered saline (PBS)) was added and incubated for another 3 h. The MTT was then removed from the wells and 100 µL/well of DMSO were added to dissolve formazan. The optical density was detected with a microplate reader (Thermoscientific, Multiskan FC) at 550 nm and cell viability was expressed as a percentage of each treatment condition compared to control cells. IC50 values were calculated for all compounds from the dose–response curve.

human CRC HCT116 cells [2] = test: MTT cell viability / IC50 on HCT116 cells; assay type: cell-based; details: for IC50: MTT assay, 1 to 50 µM, mean ± SEM of at least three experiments; for viability at 50 µM: HCT-116, MTT screening
Experimental: as §1, §2

human CRC HT-29 cells [3] = test: DNA fragmentation, Cell Death Detection ELISA, HT-29; assay type: cell-based; details: treated at IC50, n-fold compared to control
Experimental: (§3) Human CRC HT-29 and HCT116 cells were treated or not with the determined IC50 values of compounds (12a, 10a, 10b) for 24 and 48 h and then harvested with trypsin. Histone release from the nucleus during apoptosis was analyzed using the Cell Death Detection ELISA^PLUS as previously described. Cytosol extracts from 10^5 cells of each condition were obtained and DNA fragmentation was measured according to the manufacturer’s protocol. Results were reported as n-fold compared to control cells.

human CRC HCT116 cells [4] = test: DNA fragmentation, Cell Death Detection ELISA, HCT116; assay type: cell-based; details: treated at IC50, n-fold compared to control
Experimental: as §3

P-Akt = test: Western blot of P-Akt in HCT116 cells; assay type: cell-based, human; details: HCT116, treated at IC50, 6 and 12 h
Experimental: (§4) Human CRC HT-29 and HCT116 cells were treated or not with the determined IC50 values of compounds (12a, 10a, 10b) for indicated times (6, 12, 24 and 48h) and then harvested with trypsin. For total protein extraction, collected samples of each condition were washed with PBS. Then, the total cell pool was centrifuged at 200× g for 5 min at 4 °C and homogenized in RIPA lysis buffer (50 mM HEPES, pH 7.5, 150 mM NaCl, 1% sodium deoxycholate, 1% NP-40, 0.1% Sodium Dodecyl Sulfate (SDS), […] of aprotinin) containing protease inhibitors according to the manufacturer’s instructions as previously described. Proteins (60 µg) were separated on 12.5% SDS-PAGE gels and transferred to polyvinylidene difluoride (PVDF) membranes. Membranes were probed with respective human antibodies against caspase-3, cleaved caspase-3, PARP and Akt, ERK, p38 MAP Kinases and its phosphorylated forms according to the manufacturer’s instructions. After incubation with appropriate secondary antibodies, blots were developed using the «Immobilon Western » substrate following the manufacturer’s protocol and G:BOX system (Syngene, Ozyme). […]
(§5) P-Akt, Akt, P-ERK, ERK, P-p38, p-38 sourced from human CRC HCT116 cells line were investigated. […] Total lysates were collected and expression of Akt, ERK and p38 MAPK proteins and their phosphorylated forms were determined by Western blot analysis.

P-ERK = test: Western blot of P-ERK in HCT116 cells; assay type: cell-based, human; details: HCT116, treated at IC50, 6 and 12 h
Experimental: as §4, §5

P-p38 = test: Western blot of P-p38 in HCT116 cells; assay type: cell-based, human; details: HCT116, treated at IC50, 6 and 12 h
Experimental: as §4, §5

PARP [5] = test: Western blot of cleaved PARP in HT-29 cells; assay type: cell-based, human
Experimental: (§6) Human CRC HT-29 and HCT116 cells were treated or not with the determined IC50 values of compounds (12a, 10a, 10b) for indicated times (6, 12, 24 and 48h) and then harvested with trypsin. For total protein extraction, collected samples of each condition were washed with PBS. Then, the total cell pool was centrifuged at 200× g for 5 min at 4 °C and homogenized in RIPA lysis buffer (50 mM HEPES, pH 7.5, 150 mM NaCl, 1% sodium deoxycholate, 1% NP-40, 0.1% Sodium Dodecyl Sulfate (SDS), […] of aprotinin) containing protease inhibitors according to the manufacturer’s instructions as previously described. Proteins (60 µg) were separated on 12.5% SDS-PAGE gels and transferred to polyvinylidene difluoride (PVDF) membranes. Membranes were probed with respective human antibodies against caspase-3, cleaved caspase-3, PARP and Akt, ERK, p38 MAP Kinases and its phosphorylated forms according to the manufacturer’s instructions. After incubation with appropriate secondary antibodies, blots were developed using the «Immobilon Western » substrate following the manufacturer’s protocol and G:BOX system (Syngene, Ozyme). Membranes were then reblotted with human anti-β-actin used as a loading control.
Cells were treated or not for 24 and 48 h, with IC50 values of compounds 10a, 10b and 12a, for human CRC HT-29 cells and compounds 10a and 12a for human CRC HCT116 cells. Total lysates were collected, and expression of apoptosis-related proteins was determined by Western blot analysis.

caspase-3 [6] = test: Western blot of cleaved caspase-3 in HT-29 cells; assay type: cell-based, human; details: HT-29, treated at IC50, within 48 h
Experimental: as §6
(§7) Cells were treated or not for 24 and 48 h, with IC50 values of compounds 10a, 10b and 12a, for human CRC HT-29 cells and compounds 10a and 12a for human CRC HCT116 cells. […]

caspase-3 [7] = test: Western blot of cleaved caspase-3 in HCT116 cells; assay type: cell-based, human; details: HCT116, treated at IC50, 24 h (enhanced after 48 h)
Experimental: as §6, §7

PARP [8] = test: Western blot of cleaved PARP in HCT116 cells; assay type: cell-based, human; details: HCT116, treated at IC50, 24 and 48 h
Experimental: as §6, §7

COc1ccc(C(=Cc2ccc(C(C)(C)C)cc2)c2ccccn2)cc1 [Compound 10a, 2-(2-(4-(tert-butyl)phenyl)-1-(4-methoxyphenyl)vinyl)pyridine]
IC50 (human CRC HT-29 cells [1]; Homo sapiens, HT-29, 48 h): < 30 µM | viability at 50 µM (human CRC HT-29 cells [1]; Homo sapiens, 48 h): < 50% | IC50 (human CRC HT-29 cells [1]; 48 h): 25.7 ± 1.21 µM | IC50 (human CRC HCT116 cells [2]; Homo sapiens, HCT-116, 48 h): < 35 µM | viability at 50 µM (human CRC HCT116 cells [2]; Homo sapiens, 48 h): < 50% | IC50 (human CRC HCT116 cells [2]; 48 h): 33.6 ± 0.71 µM | HT-29 DNA Fragmentation (Fold) (human CRC HT-29 cells [3]; 24 h): 1.12 Fold | HT-29 DNA Fragmentation (Fold) (human CRC HT-29 cells [3]; 48 h): 0.83 Fold | HCT116 DNA Fragmentation (Fold) (human CRC HCT116 cells [4]; 24 h): 0.83 Fold | HCT116 DNA Fragmentation (Fold) (human CRC HCT116 cells [4]; 48 h): 1.89 Fold | P-Akt expression (P-Akt): inhibition is also observed | ERK phosphorylation (P-ERK): drastically decreased | p38 activation (P-p38): no p38 activation was observed | cleaved PARP expression (PARP [5]; HT-29, treated at IC50, 24 h): never been expressed | cleaved PARP expression (PARP [5]; HT-29, treated at IC50, 48 h): never been expressed

COc1ccc(C(=Cc2ccc(C(F)(F)F)cc2)c2ccccn2)cc1 [Compound 12a, 2-(1-(4-methoxyphenyl)-2-(4-(trifluoromethyl)phenyl)vinyl)pyridine]
viability at 50 µM (human CRC HT-29 cells [1]; Homo sapiens, 48 h): < 50% | IC50 (human CRC HT-29 cells [1]; 48 h): 23 ± 1.27 µM | IC50 (human CRC HCT116 cells [2]; Homo sapiens, HCT-116, 48 h): < 35 µM | viability at 50 µM (human CRC HCT116 cells [2]; Homo sapiens, 48 h): < 50% | IC50 (human CRC HCT116 cells [2]; 48 h): 31.4 ± 1.74 µM | HT-29 DNA Fragmentation (Fold) (human CRC HT-29 cells [3]; 24 h): 2.90 Fold | HT-29 DNA Fragmentation (Fold) (human CRC HT-29 cells [3]; 48 h): 3.25 Fold | HCT116 DNA Fragmentation (Fold) (human CRC HCT116 cells [4]; 24 h): 1.46 Fold | HCT116 DNA Fragmentation (Fold) (human CRC HCT116 cells [4]; 48 h): 6.97 Fold | P-Akt expression (P-Akt): downregulated | ERK phosphorylation (P-ERK): drastically decreased | p38 activation (P-p38): no p38 activation was observed | cleaved caspase-3 expression (caspase-3 [6]): high expression of the cleaved form of caspase-3 | cleaved caspase-3 expression (caspase-3 [7]): cleavage of caspase-3 | cleaved PARP expression (PARP [5]; HT-29, treated at IC50, 24 h): slightly enhanced | cleaved PARP expression (PARP [5]; HT-29, treated at IC50, 48 h): overexpressed | cleaved PARP expression (PARP [8]): significant increase of cleaved PARP
